The values that follow are results of earlier work, collected in article PMC10482267, “Safety, tolerability, pharmacokinetics, and pharmacodynamics of single and multiple doses of aficamten in healthy Chinese participants: a randomized, double-blind, placebo-controlled, phase 1 study” (Frontiers in Pharmacology, 2023).

Details of this series: method as in Heitner et al., 2019; Olivotto et al., 2020. The conditions noted are these: humans; ref Heitner et al., 2019; Olivotto et al., 2020; cited from earlier work.

For `CC(C)n1c(=O)cc(N[C@@H](C)c2ccccc2)[nH]c1=O` [Mavacamten, mavacamten], the time to steady-state result is “approximately 6 weeks”.
